Assay results reported in patent US7763615B2, “Ecteinascidin analogs for use as antitumour agents” (priority 2001, dated 2010).
Like-named read-outs stand apart in the source and are kept apart here.

Assays:
A549 = test: cells; assay type: cell-based; details: for GI50 / CC50 / IC (TGI) / TGI: A549, 48 hours exposure, SRB; for GI50: read-out: GI50; for CC50: read-out: LC50 (the source's name); for IC (TGI): read-out: TGI
Description: (§1) The finality of these assays is to interrupt the growth of a “in vitro” tumor cell culture by means of a continued exhibition of the cells to the sample to be testing.
(§2) A colorimetric type of assay, using sulphorhodamine B (SRB) reaction has been adapted for a quantitative measurement of cell growth and viability [following the technique described by Philip Skehan, et al. (1990), New colorimetric cytotoxicity assay for anticancer drug screening, J. Natl. Cancer Inst., 82:1107-1112]
(§3) This form of the assay employs 96 well cell culture microplates of 9 mm diameter (Faircloth, 1988; Mosmann, 1983). Most of the cell lines are obtained from American Type Culture Collection (ATCC) derived from different human cancer types.
(§4) Cells are maintained in RPMI 1640 10% FBS, supplemented with 0.1 g/l penicillin and 0.1 g/l streptomycin sulphate and then incubated at 37° C., 5% CO2 and 98% humidity. For the experiments, cells were harvested from subconfluent cultures using trypsin and resuspended in fresh medium before plating.
(§5) Cells are seeded in 96 well microtiter plates, at 5×10^3 cells per well in aliquots of 195 μl medium, and they are allowed to attach to the plate surface by growing in drug free medium for 18 hours. Afterward, samples are added in aliquots of 5 μl in a ranging from 10 to 10^−8 μg/ml, dissolved in DMSO/EtOH/PBS (0.5:0.5:99). After 48 hours exposure, the antitumor effect are measured by the SRB methodology: cells are fixed by adding 50 μl of cold 50% (wt/vol) trichloroacetic acid (TCA) and incubating for 60 minutes at 4° C. Plates are washed with deionized water and dried. One hundred μl of SRB solution (0.4% wt/vol in 1% acetic acid) is added to each microtiter well and incubated for 10 minutes at room temperature. Unbound SRB is removed by washing with 1% acetic acid. Plates are air dried and bound stain is solubilized with Tris buffer. Optical densities are read on a automated spectrophotometric plate reader at a single wavelength of 490 nm.
(§6) The values for mean+/− SD of data from triplicate wells are calculated. Some parameters for cellular responses can be calculated: GI=growth inhibition, TGI=total growth inhibition (cytostatic effect) and LC=cell killing (cytotoxic effect).

HT29 = test: cells; assay type: cell-based; details: for GI50 / IC (TGI) / CC50 / TGI: HT29, 48 hours exposure, SRB; for CC50: read-out: LC50 (the source's name)
Description: as §1, §2, §3, §4, §5, §6

Compound	IC50 (A549; Homo sapiens, A549)	IC50 (HT29; Homo sapiens, HT-29, HT29)	GI50 (A549; Homo sapiens, A549, 48 h)	CC50 (A549; Homo sapiens, A549, 48 h)	IC (TGI) (A549; Homo sapiens, A549, 48 h)	GI50 (HT29; Homo sapiens, HT-29, 48 h)	IC (TGI) (HT29; Homo sapiens, HT-29, 48 h)	CC50 (HT29; Homo sapiens, HT-29, 48 h)	GI50 (HT29)	TGI (HT29)	TGI (A549)	GI50 (A549)	CC50 (A549)	CC50 (HT29)
COc1c(C)cc2c(c1O)[C@@H]1C3[C@@H]4SC[C@]5(NCCc6c5[nH]c5ccccc65)C(=O)COC[C@@H](c5c6c(c(C)c(OC(C)=O)c54)OCO6)N3[C@@H](C#N)[C@H](C2)N1C (some centres unmarked) [Compound 1]	1.31 nM	1.31 nM	–	–	–	–	–	–	–	–	–	–	–	–
COc1ccc2[nH]c3c(c2c1)CCN[C@]31CS[C@@H]2c3c(OC(C)=O)c(C)c4c(c3[C@H](COCC1=O)N1C2[C@H]2c3c(cc(C)c(OC)c3O)C[C@@H]([C@@H]1C#N)N2C)OCO4 (some centres unmarked) [Compound 2]	–	–	0.63 nM	63000 nM	6.3 nM	1.26 nM	1.26 nM	63000 nM	–	–	–	–	–	–
COc1c(C)cc2c(c1O)[C@@H]1C3[C@@H]4SC[C@]5(NCCc6c5[nH]c5c(OCc7ccccc7)cccc65)C(=O)COC[C@@H](c5c6c(c(C)c(OC(C)=O)c54)OCO6)N3[C@@H](C#N)[C@H](C2)N1C (some centres unmarked) [Compound 3]	–	–	345 nM	57500 nM	3450 nM	230 nM	230 nM	57500 nM	–	–	–	–	–	–
COc1c(C)cc2c(c1O)[C@@H]1C3[C@@H]4SC[C@]5(NCCc6c5[nH]c5ccc(OCc7ccccc7)cc65)C(=O)COC[C@@H](c5c6c(c(C)c(OC(C)=O)c54)OCO6)N3[C@@H](C#N)[C@H](C2)N1C (some centres unmarked) [Compound 4]	–	–	2300 nM	11500 nM	6900 nM	2300 nM	2300 nM	11500 nM	–	–	–	–	–	–
COc1c(C)cc2c(c1O)[C@@H]1C3[C@@H]4SC[C@]5(NCCc6c5[nH]c5ccc(C)cc65)C(=O)COC[C@@H](c5c6c(c(C)c(OC(C)=O)c54)OCO6)N3[C@@H](C#N)[C@H](C2)N1C (some centres unmarked) [Compound 5]	–	–	12.9 nM	12900 nM	129 nM	12.9 nM	12.9 nM	5140 nM	–	–	–	–	–	–
COc1c(C)cc2c(c1O)[C@@H]1C3[C@@H]4SC[C@]5(NCCc6c5[nH]c5ccc(O)cc65)C(=O)COC[C@@H](c5c6c(c(C)c(OC(C)=O)c54)OCO6)N3[C@@H](C#N)[C@H](C2)N1C (some centres unmarked) [Compound 6]	–	–	5.13 nM	12800 nM	51.3 nM	5.13 nM	5.13 nM	5130 nM	–	–	–	–	–	–
COc1c(C)cc2c(c1O)[C@@H]1C3[C@@H]4SC[C@]5(NCCc6c5[nH]c5cc(F)ccc65)C(=O)COC[C@@H](c5c6c(c(C)c(OC(C)=O)c54)OCO6)N3[C@@H](C#N)[C@H](C2)N1C (some centres unmarked) [Compound 7]	–	–	767 nM	1280 nM	128 nM	63.9 nM	63.9 nM	1280 nM	–	–	–	–	–	–
COc1c(C)cc2c(c1O)[C@@H]1C3[C@@H]4SC[C@]5(C(=O)COC[C@@H](c6c7c(c(C)c(OC(C)=O)c64)OCO7)N3[C@@H](C#N)[C@H](C2)N1C)c1[nH]c2ccc(O)cc2c1CCN5C (some centres unmarked) [Compound 8]	–	–	2.52 nM	12600 nM	10.1 nM	2.52 nM	2.52 nM	5040 nM	–	–	–	–	–	–
COc1ccc2c3c([nH]c2c1)[C@@]1(CS[C@@H]2c4c(OC(C)=O)c(C)c5c(c4[C@H](COCC1=O)N1C2[C@H]2c4c(cc(C)c(OC)c4O)C[C@@H]([C@@H]1C#N)N2C)OCO5)NCC3 (some centres unmarked) [Compound 9]	–	–	25.2 nM	8820 nM	101 nM	378 nM	378 nM	12600 nM	–	–	–	–	–	–
COc1c(C)cc2c(c1O)[C@@H]1C3[C@@H]4SC[C@]5(NCCc6c5[nH]c5ccc(F)cc65)C(=O)COC[C@@H](c5c6c(c(C)c(OC(C)=O)c54)OCO6)N3[C@@H](C#N)[C@H](C2)N1C (some centres unmarked) [Compound 10]	–	–	39.1 nM	12800 nM	128 nM	40.3 nM	12800 nM	12800 nM	–	–	–	–	–	–
COc1c(C)cc2c(c1O)[C@@H]1C3[C@@H]4SC[C@]5(NCCc6c5[nH]c5c(C)cccc65)C(=O)COC[C@@H](c5c6c(c(C)c(OC(C)=O)c54)OCO6)N3[C@@H](C#N)[C@H](C2)N1C (some centres unmarked) [Compound 11]	–	–	18.9 nM	129 nM	50 nM	30.9 nM	129 nM	12900 nM	–	–	–	–	–	–
COc1c(C)cc2c(c1O)[C@@H]1C3[C@@H]4SC[C@]5(NC(C)Cc6c5[nH]c5ccc(O)cc65)C(=O)COC[C@@H](c5c6c(c(C)c(OC(C)=O)c54)OCO6)N3[C@@H](C#N)[C@H](C2)N1C (some centres unmarked) [Compound 12]	–	–	7.28 nM	12600 nM	83.5 nM	–	–	12600 nM	13.7 nM	1.26E−07 Molar	–	–	–	–
COc1c(C)cc2c(c1O)[C@@H]1C3[C@@H]4SC[C@]5(NC(C)Cc6c5[nH]c5ccc(O)cc65)C(=O)COC[C@@H](c5c6c(c(C)c(OC(C)=O)c54)OCO6)N3[C@@H](C#N)[C@H](C2)N1C (some centres unmarked) [Compound 13]	–	–	–	–	–	–	–	–	333 nM	1.26E−06 Molar	6.79E−08 Molar	6.31 nM	12600 nM	12600 nM
COc1c(C)cc2c(c1O)[C@@H]1C3[C@@H]4SC[C@]5(C(=O)COC[C@@H](c6c7c(c(C)c(OC(C)=O)c64)OCO7)N3[C@@H](C#N)[C@H](C2)N1C)c1[nH]c2ccccc2c1CCN5C (some centres unmarked) [Compound 15]	–	–	–	–	–	–	–	13100 nM	4.16 nM	1.31E−08 Molar	1.31E−08 Molar	4.78 nM	1270 nM	–
COc1c(C)cc2c(c1O)[C@@H]1C3[C@@H]4SC[C@]5(NC(C)Cc6c5[nH]c5ccc(F)cc65)C(=O)COC[C@@H](c5c6c(c(C)c(OC(C)=O)c54)OCO6)N3[C@@H](C#N)[C@H](C2)N1C (some centres unmarked) [Compound 16]	–	–	–	4440 nM	–	42.8 nM	–	12800 nM	–	1.28E−07 Molar	1.28E−07 Molar	36.7 nM	–	–
COc1c(C)cc2c(c1O)[C@@H]1C3[C@@H]4SC[C@]5(NC(C)Cc6c5[nH]c5ccc(F)cc65)C(=O)COC[C@@H](c5c6c(c(C)c(OC(C)=O)c54)OCO6)N3[C@@H](C#N)[C@H](C2)N1C (some centres unmarked) [Compound 17]	–	–	–	–	–	–	–	–	22.2 nM	1.28E−08 Molar	4.41E−08 Molar	5.39 nM	6670 nM	12800 nM
COc1c(C)cc2c(c1O)[C@@H]1C3[C@@H]4SC[C@]5(NC(C)Cc6c5[nH]c5ccccc65)C(=O)COC[C@@H](c5c6c(c(C)c(OC(C)=O)c54)OCO6)N3[C@@H](C#N)[C@H](C2)N1C (some centres unmarked) [Compound 18]	–	–	–	12900 nM	–	5.62 nM	129 nM	12900 nM	–	–	1.29E−07 Molar	6.77 nM	–	–
COc1c(C)cc2c(c1O)[C@@H]1C3[C@@H]4SC[C@]5(NC(C)Cc6c5[nH]c5ccccc65)C(=O)COC[C@@H](c5c6c(c(C)c(OC(C)=O)c54)OCO6)N3[C@@H](C#N)[C@H](C2)N1C (some centres unmarked) [Compound 19]	–	–	–	–	–	–	–	–	4.45 nM	1.29E−07 Molar	1.29E−08 Molar	3.27 nM	12900 nM	12900 nM
